Assay results taken from patent US10251854B2, “S-(carboxymethyl)-cysteine pharmaceutical compound and preparation method and use thereof” (Guangzhou Baiyunshan Pharmaceutical Holdings Co., Ltd. …, priority 2013, dated 2019).
Where a name gives a salt, the structure may show the parent alone. Read-outs that look alike come from different tables or passages of the source.

How the values were obtained:
[1] = test system: rat COPD model; assay: Rat COPD model: inflammation indexes (TNF-α, IL-8, IL-6); format: in vivo; details: x ± SD
Procedure: (§1) 1.1 Preparation of Rat COPD Models
(§2) A method of establishing a rat COPD model by fumigation plus endotoxin lipopolysaccharide (LPS) endotracheal drop, which is commonly used at home and abroad at present was adopted. The period is 3 months (90 days). Specific method: on the 1st, the 15th, the 29th, the 43rd, the 57th, the 71st and the 85th days of the test, the rats were anesthetized with ethylether, the roots of tongues of the rats were pulled out, and LPS (200 ug/200 ul) was dripped through tracheas by bend gavage needle heads. The rats of the normal group were dripped with physiological saline of equal amount by the same method, and weren't fumigated. The rats of the other five groups were fumigated in a self-made fumigation bin. One side of the fumigation bin was externally connected with a negative pressure pump, and the top thereof was connected with a port for inserting cigarettes. With the negative press pump turned on, the cigarettes were lit, and the smoke of the cigarettes was absorbed into the fumigation bin. In order to prevent the animals from death caused by anoxia, 12 cigarettes were lit every time, and the lid of the fumigation bin was opened 20 min after fumigation for letting in fresh air. The operation was performed 1 h/3 times/day, with the LPS (200 ug/200 ul) being dripped through the tracheas by bend gavage needle heads.
(§3) 1.2 Pharmacological Intervention
(§4) The test was 90 days long. The pharmacological intervention was started from the 15th day, the rats of the positive group were perfused with carbocisteine, the rats of the low, medium and high test groups were perfused with different doses of test medicines, and the rats of the model group and the normal group were perfused with physiological saline of equal amount.
(§5) 1.3 Indexes Determination
(§6) Blood was taken from the orbit of each rat on the second day after the test was over, serum was separated, a complete stomach was cut and washed, lung tissue was preserved, the stomach and the right upper lung were left for pathobiology test, after the rest of the lung was subjected to lung tissue homogenate, the indexes of oxidization and antioxidation, the contents of lipid peroxide (LPO), malondialdehyde (MDA) and reduced glutathione (GSH), the activity of superoxide dismutase (SOD) and the concentration of inflammatory medium TNF-α, IL-8 and IL-6 were detected.

[2] = pH value of 1% solution/suspension by pH meter; format: physicochemical; details: n=6
From the text: (§7) In a preferred embodiment of the present invention, the S-(carboxymethyl)-L-cysteine ammonium salt monohydrate crystalline compound is a soluble double salt formed by the acidity of the carboxyl thereof and the alkalinity of the aqueous ammonia. […] In addition, the medicine, after being absorbed by the body, can be hydrolysed into S-(carboxymethyl)-L-cysteine and ammonium chloride with the effect of gastric acid, which can not only reduce the irritation of S-(carboxymethyl)-L-cysteine to the gastrointestinal tract, but also neutralize the excessive gastric acid. After the S-(carboxymethyl)-L-cysteine ammonium salt monohydrate crystal is hydrolysed, the S-(carboxymethyl)-L-cysteine in the body continues giving play to pharmacological effects thereof. At the same time, the ammonium chloride obtained from hydrolysis has chemical irritation to the mucous membrane, which can reflectively increase the amount of sputum to easily remove the sputum, and is conducive to removing a small amount of sputum which is difficult to be coughed out, thereby enhancing the sputum-resolving effect of the S-(carboxymethyl)-L-cysteine, and improving the curative effect. The S-(carboxymethyl)-L-cysteine ammonium salt is safe, has small side effect, and can be used for patients suffering from chronic obstructive pulmonary disease and the like to take for a long time.

[3] = Water solubility; format: physicochemical
From the text: as §7

[4] = test system: rat COPD model; assay: Rat COPD model: oxidization indexes (LPO, MDA); format: in vivo; details: x ± SD
Procedure: as §1, §2, §3, §4, §5, §6

[5] = Storage at room temperature (character, moisture absorption); format: physicochemical; details: stored for a period of time at room temperature
From the text: The S-(carboxymethyl)-L-cysteine ammonium salt monohydrate crystals of the present invention have a relatively uniform particle size distribution.

[6] = test system: rat COPD model; assay: Rat COPD model: antioxidation indexes (GSH, SOD); format: in vivo; details: x ± SD
Procedure: as §1, §2, §3, §4, §5, §6

[7] = Solubility in several solvents (25° C.); format: physicochemical
[8] = test system: gastric mucosa of rats; assay: Rat COPD model: pathological changes of stomachs; format: in vivo; details: perfused from the 15th day of the 90 day test
Procedure: A method of establishing a rat COPD model by fumigation plus endotoxin lipopolysaccharide (LPS) endotracheal drop, which is commonly used at home and abroad at present was adopted. The period is 3 months (90 days). Specific method: on the 1st, the 15th, the 29th, the 43rd, the 57th, the 71st and the 85th days of the test, the rats were anesthetized with ethylether, the roots of tongues of the rats were pulled out, and LPS (200 ug/200 ul) was dripped through tracheas by bend gavage needle heads. The rats of the normal group were dripped with physiological saline of equal amount by the same method, and weren't fumigated. The rats of the other five groups were fumigated in a self-made fumigation bin. […]
as §6

[9] = test system: patients suffering from COPD; details: 142 patients; 1500 mg/d, 12 months; cited from earlier work
[10] = test system: patients suffering from COPD; details: 1500 mg/d, 12 months; cited from earlier work
[11] = test system: chronic obstructive pulmonary disease; details: 1500 mg/d, 12 months; cited from earlier work

SMILES: N[C@@H](CSCC(=O)O)C(=O)O [L-ammonium, S-(carboxymethyl)-L-cysteine ammonium salt monohydrate]
- IL-6 Lung tissue ([1]; high dose group): 9.28 ± 4.49 pg/mL
- IL-6 Serum ([1]; high dose group): 5.83 ± 1.51 pg/mL
- IL-8 Lung tissue ([1]; high dose group): 8.17 ± 1.06 pg/mL
- IL-8 Serum ([1]; high dose group): 5.36 ± 1.51 pg/mL
- TNF-α Lung tissue ([1]; high dose group): 15.15 ± 4.20 pg/mL
- TNF-α Serum ([1]; high dose group): 13.02 ± 5.32 pg/mL
- IL-6 Lung tissue ([1]; low dose group): 14.72 ± 5.51 pg/mL
- IL-6 Serum ([1]; low dose group): 7.02 ± 3.30 pg/mL
- IL-8 Lung tissue ([1]; low dose group): 9.97 ± 1.24 pg/mL
- IL-8 Serum ([1]; low dose group): 7.90 ± 2.16 pg/mL
- TNF-α Lung tissue ([1]; low dose group): 20.60 ± 9.60 pg/mL
- TNF-α Serum ([1]; low dose group): 17.98 ± 3.94 pg/mL
- IL-6 Lung tissue ([1]; medium dose group): 12.91 ± 2.47 pg/mL
- IL-6 Serum ([1]; medium dose group): 6.24 ± 2.12 pg/mL
- IL-8 Lung tissue ([1]; medium dose group): 8.66 ± 2.54 pg/mL
- IL-8 Serum ([1]; medium dose group): 6.30 ± 2.17 pg/mL
- TNF-α Lung tissue ([1]; medium dose group): 19.98 ± 8.78 pg/mL
- TNF-α Serum ([1]; medium dose group): 15.11 ± 4.38 pg/mL
- pH value ([2]; 1% compound, pH meter): 6.60±0.36
- water solubility ([3]; listed as S-(carboxymethyl)-L-cysteine ammonium salt monohydrate crystal, ammonium salt monohydrate): extremely easily soluble in water
- LPO Lung tissue ([4]; high dose group): 13.51 ± 1.66 nmol/mL
- LPO Serum ([4]; high dose group): 3.22 ± 0.85 nmol/mL
- MDA Lung tissue ([4]; high dose group): 3.68 ± 0.87 µmol/mL
- MDA Serum ([4]; high dose group): 5.88 ± 1.26 µmol/mL
- LPO Lung tissue ([4]; low dose group): 16.24 ± 2.32 nmol/mL
- LPO Serum ([4]; low dose group): 4.75 ± 1.30 nmol/mL
- MDA Lung tissue ([4]; low dose group): 4.03 ± 1.27 µmol/mL
- MDA Serum ([4]; low dose group): 7.28 ± 1.33 µmol/mL
- LPO Lung tissue ([4]; medium dose group): 15.58 ± 2.73 nmol/mL
- LPO Serum ([4]; medium dose group): 3.77 ± 1.15 nmol/mL
- MDA Lung tissue ([4]; medium dose group): 3.88 ± 0.59 µmol/mL
- MDA Serum ([4]; medium dose group): 6.20 ± 3.23 µmol/mL
- absorption of moisture [5]: insusceptible to absorption of moisture
- character changes after storage [5]: no obvious character changes
- GSH Lung tissue ([6]; high dose group): 141.69 ± 28.40 µmol/L
- GSH Serum ([6]; high dose group): 232.93 ± 40.49 µmol/L
- SOD Lung tissue ([6]; high dose group): 77.56 ± 18.09 U/mL
- SOD Serum ([6]; high dose group): 140.69 ± 32.13 U/mL
- GSH Lung tissue ([6]; low dose group): 113.59 ± 24.32 µmol/L
- GSH Serum ([6]; low dose group): 140.64 ± 19.66 µmol/L
- SOD Lung tissue ([6]; low dose group): 60.38 ± 16.04 U/mL
- SOD Serum ([6]; low dose group): 90.80 ± 15.13 U/mL
- GSH Lung tissue ([6]; medium dose group): 124.19 ± 30.78 µmol/L
- GSH Serum ([6]; medium dose group): 175.61 ± 31.11 µmol/L
- SOD Lung tissue ([6]; medium dose group): 70.71 ± 11.16 U/mL
- SOD Serum ([6]; medium dose group): 102.98 ± 23.26 U/mL
- Solubility ([7]; Absolute ethyl alcohol): Very slightly soluble
- Solubility ([7]; Acetone): Very slightly soluble
- Solubility ([7]; Acetonitrile): Very slightly soluble
- Solubility ([7]; Isopropanol): Very slightly soluble
- Solubility ([7]; Methanol): Very slightly soluble
- Solubility ([7]; N,N-Dimethylformamide): Very slightly soluble

SMILES: N[C@@H](CSCC(=O)O)C(=O)O [carbocisteine, S-(carboxymethyl)-L-cysteine, reference compound]
- Pathological changes of stomachs / irritation to the gastrointestinal tract [8]: mild irritations such as mild hyperaemia and edema, and larger inflammatory cell infiltration
- Pathological changes of stomachs / irritation to the gastrointestinal tract ([8]; listed as positive group): mild edema and hyperemia and serious inflammatory cell infiltration in the gastric mucosa layers
- IL-6 Lung tissue ([1]; positive group): 14.24 ± 6.26 pg/mL
- IL-6 Serum ([1]; positive group): 8.13 ± 2.87 pg/mL
- IL-8 Lung tissue ([1]; positive group): 10.91 ± 2.30 pg/mL
- IL-8 Serum ([1]; positive group): 7.87 ± 3.08 pg/mL
- TNF-α Lung tissue ([1]; positive group): 25.17 ± 8.28 pg/mL
- TNF-α Serum ([1]; positive group): 18.37 ± 4.55 pg/mL
- prevention of acute COPD [9]: prevented from acute COPD
- pH ([2]; 1% suspension per Chinese Pharmacopoeia (2010 Edition)): 2.93±0.20
- water solubility [3]: poorer water solubility
- LPO Lung tissue ([4]; positive group): 17.44 ± 2.43 nmol/mL
- LPO Serum ([4]; positive group): 5.12 ± 1.09 nmol/mL
- MDA Lung tissue ([4]; positive group): 4.76 ± 0.70 µmol/mL
- MDA Serum ([4]; positive group): 7.34 ± 2.19 µmol/mL
- frequency of catching colds and acute exacerbation of COPD [10]: the frequency of catching colds is reduced and the acute exacerbation of COPD is relieved
- GSH Lung tissue ([6]; positive group): 107.26 ± 23.52 µmol/L
- GSH Serum ([6]; positive group): 132.31 ± 24.04 µmol/L
- SOD Lung tissue ([6]; positive group): 62.28 ± 15.12 U/mL
- SOD Serum ([6]; positive group): 96.16 ± 23.03 U/mL
- annual acute morbidity per person reduced by [11]: 24.5%
